Experimental findings from patent US7723072B2, “Polypeptide factor from a thermophilic eubacterial species and use thereof in the production of functional, heterologous proteins in an expression host” (University of Limerick, priority 2003, dated 2010) are described below.

Common to all, as to assay type: cell-based
Test [1] deals with E. coli JM83 containing pUC with cloned czrB. The test can be described thus: Minimal inhibitory concentrations (MICs) for metal cations, JM83 containing pUC with cloned czrB. Particulars: clone +pUC-czrB.
Test [2] has as its system E. coli JM83 containing pUC.
A further test concerns E. coli JM83. The test is described as follows: Minimal inhibitory concentrations (MICs) for metal cations, E. coli JM83. The settings on record: 40 h at 37° C.
For test [3], the system named is E. coli cells. The test can be described thus: Growth (OD600) of E. coli clones during bacteriophage and recombinant antibody production. The settings on record: pHB102 phagemid, during phage and antibody production. On the procedure:
E. coli cells harbouring the Thermus library were inoculated to an OD600<0.05 in 10 ml 2xYT medium containing tetracycline (15 μg/ml), additional salts (8.6 mM NaCl; 2.5 mM KCl; 10 mM MgCl2) and 0.4% glucose. After 1 h at 37° C., 30 μg/ml chloramphenicol was added, followed by 10^10 pfu of helper phage (VCSM13 helper phage; Stratagene) at an OD600 of 0.5. Incubation at 50° C. for 5 min was followed by the addition of 50 ml 2xYT containing tetracycline, chloramphenicol, additional salts and 0.5 mM isopropyl-β-D-thiogalactoside (IPTG). The culture was shaken at 40° C. for 2 h and, after the addition of 30 μg/ml kanamycin, grown for a further 12-14 h at 40° C. Phage particles were precipitated from culture supernatants by two PEG precipitation steps and resuspended in 1 ml PBS (8 g NaCl, 0.24 g KH2PO4, 1.44 g Na2HPO4, 0.2 g KCl in 1 L, pH 7.4). Immunotubes (Nunc) were coated overnight at 4° C. with 1 μg/ml fluorescein-isothiocyanate coupled to bovine serum albumin (FITC-BSA) (Bothmann, H. and Plückthun, A (1998) supra) in PBS. […]
E. coli cells infected with phage were grown as described in Example 1. The OD600 was read at hourly intervals for the first 8-10 h after induction. […]

The subject of test [4] is E. coli cultures. The test can be described thus: Anti-FITC ELISA of phage-displayed functional antibody. Particulars: 10 and 22 h after induction. On the procedure: (§1) Individual clones were analysed by restriction digestion after 22 h of induction to confirm that they contained both the Thermus insert and the recombinant antibody gene. […] Immunoplate wells (Nunc) were coated with 100 μl of FITC-BSA and blocked with 5% skimmed milk in PBST. After washing, 100 μl of phage solutions containing 0.5% skimmed milk were added and incubated for 2 h at 25° C. Phage particles were detected using a peroxidase-conjugated anti-M13 antibody (1:3000 in PBST; Amersham Pharmacia Biotech Inc.) and development was carried out using a BM Blue POD soluble substrate (Roche Diagnostics). After stopping the reaction using 25 μl of 1 N H2SO4, the absorbance was read at 405 nm. […] The results are depicted in FIGS. 6 and 7.
FIG. 7 depicts ELISA analysis of clones expressing czrB. […] Results are shown for samples taken 10 and 22 h after induction.

Test [5] has as its system E. coli cultures. The test can be described thus: Phage titers of E. coli clones. The settings on record: pHB102 vs pHB102-czrB; 10 and 22 h after induction. The method, then:
as §1
FIG. 6 depicts phage titers of clones expressing czrB. The phage titers of clones containing pHB102 phagemid vector or pHB102-czrB expressed as colony forming units (cfu) were determined 10 and 22 h after induction.

For test [6], the system named is E. coli cells. The test is described as follows: Growth of E. coli with czrB expressed from lac promoter in pUC-based vector. The settings on record: Plac induction; no bacteriophage, no recombinant antibody. From the text:
To investigate this theory further, czrB was expressed from a lac promoter in a standard pUC-based expression vector, in the absence of bacteriophage particles and the recombinant antibody used in experiments thus far. […] This raises the possibility that CzrB, in its full length form or as a truncated version, might function as an “universal chaperone”, which would facilitate the expression of any recombinant or heterologous proteins produced in an E. coli host.

For test [7], the system named is E. coli cells. The test can be described thus: Intracellular zinc concentration in E. coli clones (atomic absorption). The settings on record: 1 h incubation in 0, 1, 2, 5 mM extracellular zinc; vs JM83 and pUC alone. From the text: Metal resistances of the type observed with the czrB clones can be the result of metal sequestering or modification of metal transport processes. However, based on reports of CzrB homologues in other organisms it was postulated that the protein CzrB provided resistance to heavy metal ions by an efflux mechanism rather than by metal sequestering. Therefore, the ability of the T. thermophilus CzrB protein to pump zinc ions out of the E. coli cells in which it was expressed was investigated. Intracellular zinc concentrations were measured as follows: E. coli clones were grown at 37° C. in LB medium (100 μg/ml ampicillin, 25 μg/ml streptomycin) in the presence or absence of 165 μM ZnCl2 until an OD600 of 1.0 was reached. After addition of 1, 2 or 5 mM ZnCl2, growth was continued for 30 min, 1 h or 2 h, with control cultures grown in the absence of ZnCl2. […] The zinc concentration was measured in the supernatant using an atomic absorption spectrophotometer (Varian SpectrAA-400 Plus), with standard solutions prepared immediately before use from commercial standards (Fisher Scientific). […] The results are shown in FIG. 3 which depicts a quantification of intracellular zinc levels in E. coli clones: JM83 (“JM83”), JM83 containing pUC (“pUC”), and JM83 containing pUC-czrB without (“czrB”) and with (“czrB (Zn)”) a zinc pre-induction step. […]

Setting [8] is: pre-induction cadmium (80 μM CdCl2).
Where [9] appears, read: pre-induction cobalt (220 μM CoCl2).
Where [10] appears, read: pre-induction zinc (165 μM ZnCl2).
Setting [11] is: clone +pUC, pre-induction cadmium (80 μM CdCl2).
The mark [12] stands for this setting: clone +pUC, pre-induction cobalt (220 μM CoCl2).
Where [13] appears, read: clone +pUC, pre-induction none, 40 h at 37° C.
Where [14] appears, read: clone +pUC, pre-induction zinc (165 μM ZnCl2).

Read-outs that look alike come from different tables or passages of the source.

Broadly, the MIC is the lowest concentration that inhibits growth of the organism. On to `[Cl][Cd][Cl]` [Cadmium, CdCl2], for which the MIC in test [1] (setting [8]) was 900 µM; in test [1] (setting [9]) it was 1100 µM; in test [1] (pre-induction none), 1000 µM; in test [1] (setting [10]) it was 1000 µM; in test [2] (setting [11]), 700 µM; in test [2] (setting [12]), 900 µM. Moreover, the MIC in test [2] (setting [13]) is 900 µM; in test [2] (setting [14]) it was 900 µM; with E. coli JM83 (clone JM83, pre-induction none) it was 900 µM.
Consider `[Cl-].[Cl-].[Co+2]` [Cobalt, CoCl2], for which the MIC in test [1] (setting [8]), in test [1] (setting [9]), in test [1] (pre-induction none), in test [1] (setting [10]), in test [2] and in test [2] (40 h at 37° C.) was 2100 µM in each case. The same molecule came in with a minimal inhibitory concentration (MIC) against E. coli JM83 of 2100 µM.
In the case of `[Cl-].[Cl-].[Zn+2]` [Zinc, ZnCl2], the MIC in test [1] (setting [8]) turned out to be 2200 µM; in test [1] (setting [9]) it was 2100 µM; in test [1] (pre-induction none) it was 1900 µM; in test [1] (setting [10]), 2500 µM; in test [2] (setting [11]), 1600 µM; in test [2] (setting [12]), 1600 µM. Also, the MIC in test [2] (setting [13]) stood at 1600 µM; in test [2] (setting [14]) it was 1600 µM; with E. coli JM83 (clone JM83, pre-induction none), 2000 µM.

B1: partial czrB: Truncated form of the CzrB protein, 92 amino acids (SEQ ID NO: 2), C-terminal cytoplasmic tail (protein)
chain: MDEGLPPEEVERIRAFLQERIRGRALEVHDLKTRRAGPRSFLEFHLVVRGDTPVEEAHRLCDELERALAQAFPGLQATIHVEPEGERKRTNP
modifications: Thermus thermophilus CzrB
Regarding B1, in the test on E. coli cells [3], the growth characteristics entry was “intermediate between the full-length czrB clone and cells containing the phagemid vector”. Further, in the test on E. coli cultures [4], the “amount of functional antibody relative to cultures containing the vector alone” value was “intermediate between the full-length gene and the control culture”. Besides, the “phage titres relative to cultures containing the vector alone” value in the test on E. coli cultures [5] is “intermediate between the full-length gene and the control culture”.

B2: czrB: Polypeptide factor from Thermus thermophilus, 291 amino acids (SEQ ID NO: 1), co-expressed in E. coli (protein)
chain: MAEGAARLSLVVALLVLGLKAFAYLLTGSVALLSDALESLVNVAAALAALLALRVARKPPDQNHPFGHTKAEYVSAVLEGVLVVLAALWIAREALPRLLHPVPLEGLGLGLGVSLLASLLNGLLAYHLLKEGRRHRSPALTADGYHVLSDVLTSLGVVLGVGLAGLTGLWVLDPLLALAVAGQILFLGYRIVRESVGGLMDEGLPPEEVERIRAFLQERIRGRALEVHDLKTRRAGPRSFLEFHLVVRGDTPVEEAHRLCDELERALAQAFPGLQATIHVEPEGERKRTNP
modifications: Thermus thermophilus CzrB
Turning to B2, the “E. coli cell growth relative to cells containing the vector alone” value in the test on E. coli cells [6] is given as “same pattern of E. coli cell growth”. For the same molecule, the “cell densities attained relative to cells containing just the phagemid vector” value in the test on E. coli cells [3] is reported as “greater than 2 fold”. Further, in the test with E. coli cultures [4], the “amount of functional antibody relative to cultures containing the vector alone” value is recorded as “more than twice”. Moreover, the “phage titres relative to cultures containing the vector alone” value with E. coli cultures [5] is listed as “two-fold higher”. In the test with E. coli cells [7], the “levels of zinc in E. coli cells” value was “significantly reduce”.
